For data set [1] the following is noted: noted by others; above it CS forms supramolecular aggregates; cited from earlier work.
Data set [2] can be described thus: Dissolution profile in PBS (pH 7.40) at 37° C., UV absorbance at 237 nm. Conditions: PBS pH=7.40, 37° C., 150 rpm, after 1 hr. The data set is classed as physicochemical. How it is done:
Dissolution profiles—Dissolution profiles were recorded for CS, Cromolyn-Zn, Cromolyn-Mg, and Cromolyn-Ca and quantified by measuring absorbance at 237 nm against a reagent blank containing the buffered media. Dissolution tests were performed in a PBS buffer (pH=7.40) and FaSSGF (pH=1.60) at 37° C. under constant stirring (150 rpm). Absorbance measurements were performed on an Agilent Technologies Cary Series UV-Vis Spectrophotometer, Cary 100 UV-Vis model; using the UV Cary Scan software version v.20.0.470. Stock Solution: A standard stock solution of CS was prepared by dissolving 10 mg in a 100 mL (0.1 mg/mL) volumetric flask and completing to volume with PBS. Dilute solutions were obtained by appropriate dilution of this stock solution. […] PBS was used as the solvent. The absorbance of CS was measured at maximum absorption wavelength (λmax) of 237 nm against a solvent blank (PBS). […] Dissolution profiles were recorded for CS, Cromolyn-Zn, Cromolyn-Mg, and Cromolyn-Ca. […] The absorbance of CS was measured at 237 nm against the solvent blank. […] Absorbance measurements were performed on an Agilent Technologies Cary Series UV-Vis Spectrophotometer, Cary 100 UV-Vis; using the UV Cary Scan software version v.20.0.470. […] The absorbance was measured at the maximum wavelength (λmax=237 nm) for CS as the degradation of the pMCs progressed in PBS over time. […]

For data set [3] the following is noted: at 20° C.; cited from earlier work.
The conditions of data set [4]: orally administered, absorption from the gastrointestinal tract; cited from earlier work.
A short description of data set [5]: Dissolution / stability in FaSSGF (pH 1.60) at 37° C. The data set is classed as physicochemical. The settings on record: FaSSGF pH=1.60, 37° C. How it is done: Dissolution profiles—Dissolution profiles were recorded for CS, Cromolyn-Zn, Cromolyn-Mg, and Cromolyn-Ca and quantified by measuring absorbance at 237 nm against a reagent blank containing the buffered media. Dissolution tests were performed in a PBS buffer (pH=7.40) and FaSSGF (pH=1.60) at 37° C. under constant stirring (150 rpm). Absorbance measurements were performed on an Agilent Technologies Cary Series UV-Vis Spectrophotometer, Cary 100 UV-Vis model; using the UV Cary Scan software version v.20.0.470.
The stability of these materials in biologically relevant media was used to understand the ability of the pMCs to sustain blood plasma concentration for CS. A higher blood concentration might allow for longer circulation times and adequate delivery to the target tissues and organs. This is currently a pharmacological disadvantage for oral formulations of CS (<1% bioavailability and low solubility ˜100.0 mg/mL at 20° C.). […] Therefore, no further dissolution studies were carried out in this media.

SMILES strings stand for the structures. Where only a bound is given, the exact number is not on record here.

The term solubility denotes the concentration that dissolves in the medium under given conditions. Usually bioavailability stands for the share of a dose that reaches the circulation, judged against a reference dose that is usually intravenous. Turning to `O=C(O)c1cc(=O)c2c(OCC(O)COc3cccc4oc(C(=O)O)cc(=O)c34)cccc2o1` [CS, cromolyn sodium], the critical self-association concentration in data set [1] is recorded as 10.00 mg/mL. For the same compound, the “maximum concentration of CS dissolved” value in data set [2] was around 98%. Moreover, the solubility in data set [3] was around 100.0 mg/mL. Moreover, the bioavailability in data set [4] was below 1%. The “dissolution / degradation in FaSSGF” value in data set [5] is “no detectable dissolution”.

These data come from US11865101B2, “Cromolyn metal complexes as enhanced pharmaceutical formulations and method of preparing the same” (University of Puerto Rico, priority 2020, dated 2024).
